Patent US6525178B2, “PGC-1, a novel brown fat PPARgamma coactivator” (Dana-Farber Cancer Institute, priority 1997, dated 2003)

Tests used:
[1] = molecular target: T1, retinoic acid receptor (Homo sapiens, UniProt P10276); assay: In vitro binding of GST-PGC-1 to in vitro-translated nuclear receptor; conditions: ligand 1 μM
T1 sequence (P10276 1-462): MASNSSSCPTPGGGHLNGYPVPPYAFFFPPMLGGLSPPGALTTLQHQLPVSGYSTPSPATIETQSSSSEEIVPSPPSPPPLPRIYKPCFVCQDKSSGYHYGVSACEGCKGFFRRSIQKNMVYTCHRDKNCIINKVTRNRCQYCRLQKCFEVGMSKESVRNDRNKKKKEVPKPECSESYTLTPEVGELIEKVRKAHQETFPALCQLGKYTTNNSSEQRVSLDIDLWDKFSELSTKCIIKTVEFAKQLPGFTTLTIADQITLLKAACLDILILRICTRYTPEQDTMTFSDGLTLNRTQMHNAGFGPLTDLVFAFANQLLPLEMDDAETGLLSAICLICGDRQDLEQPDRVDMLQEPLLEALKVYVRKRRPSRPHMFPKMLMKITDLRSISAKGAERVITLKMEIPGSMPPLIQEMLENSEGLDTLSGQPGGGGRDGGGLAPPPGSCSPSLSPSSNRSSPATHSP
T1 sequence (O70343 36-797 partner limits assumed): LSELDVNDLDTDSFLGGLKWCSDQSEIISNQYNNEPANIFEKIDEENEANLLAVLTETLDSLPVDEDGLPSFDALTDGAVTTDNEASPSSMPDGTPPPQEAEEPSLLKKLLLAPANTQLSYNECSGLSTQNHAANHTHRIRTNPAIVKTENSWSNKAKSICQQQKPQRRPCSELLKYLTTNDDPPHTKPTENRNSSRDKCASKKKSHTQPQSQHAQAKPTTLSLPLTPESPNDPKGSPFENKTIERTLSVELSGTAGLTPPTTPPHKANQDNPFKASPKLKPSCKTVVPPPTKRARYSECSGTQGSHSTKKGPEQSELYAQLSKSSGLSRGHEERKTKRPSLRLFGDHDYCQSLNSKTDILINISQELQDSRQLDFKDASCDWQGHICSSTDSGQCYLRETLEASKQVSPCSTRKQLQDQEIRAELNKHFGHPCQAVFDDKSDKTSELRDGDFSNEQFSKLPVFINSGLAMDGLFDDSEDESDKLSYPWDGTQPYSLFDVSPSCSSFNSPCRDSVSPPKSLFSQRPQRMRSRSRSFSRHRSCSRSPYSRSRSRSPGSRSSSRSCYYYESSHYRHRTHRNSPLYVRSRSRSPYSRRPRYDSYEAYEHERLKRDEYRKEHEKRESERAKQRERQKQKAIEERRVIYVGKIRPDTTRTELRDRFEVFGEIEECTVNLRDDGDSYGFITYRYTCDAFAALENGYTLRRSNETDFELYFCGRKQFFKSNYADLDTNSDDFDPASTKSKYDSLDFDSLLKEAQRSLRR

[2] = molecular target: T2, PPARδ (Homo sapiens, UniProt Q03181); assay: as above; conditions: ligand 1 μM
T2 construct: made in house; host or cells: receptor: reticulocyte lysate in vitro translation (Promega TNT); GST-PGC-1: E. coli
T2 sequence (Q03181 1-441): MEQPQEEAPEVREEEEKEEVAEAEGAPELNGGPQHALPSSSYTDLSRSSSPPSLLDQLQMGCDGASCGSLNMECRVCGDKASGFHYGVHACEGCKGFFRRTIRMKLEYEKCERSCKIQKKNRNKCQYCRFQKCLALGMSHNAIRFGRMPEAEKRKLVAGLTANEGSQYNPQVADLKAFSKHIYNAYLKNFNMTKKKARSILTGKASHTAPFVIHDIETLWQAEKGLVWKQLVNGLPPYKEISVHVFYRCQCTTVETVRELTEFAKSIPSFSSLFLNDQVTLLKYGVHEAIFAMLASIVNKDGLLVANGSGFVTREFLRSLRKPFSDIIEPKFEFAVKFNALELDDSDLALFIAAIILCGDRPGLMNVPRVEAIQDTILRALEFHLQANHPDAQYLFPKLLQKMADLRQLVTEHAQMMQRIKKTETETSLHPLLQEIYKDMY
T2 sequence (O70343 36-797 partner limits assumed): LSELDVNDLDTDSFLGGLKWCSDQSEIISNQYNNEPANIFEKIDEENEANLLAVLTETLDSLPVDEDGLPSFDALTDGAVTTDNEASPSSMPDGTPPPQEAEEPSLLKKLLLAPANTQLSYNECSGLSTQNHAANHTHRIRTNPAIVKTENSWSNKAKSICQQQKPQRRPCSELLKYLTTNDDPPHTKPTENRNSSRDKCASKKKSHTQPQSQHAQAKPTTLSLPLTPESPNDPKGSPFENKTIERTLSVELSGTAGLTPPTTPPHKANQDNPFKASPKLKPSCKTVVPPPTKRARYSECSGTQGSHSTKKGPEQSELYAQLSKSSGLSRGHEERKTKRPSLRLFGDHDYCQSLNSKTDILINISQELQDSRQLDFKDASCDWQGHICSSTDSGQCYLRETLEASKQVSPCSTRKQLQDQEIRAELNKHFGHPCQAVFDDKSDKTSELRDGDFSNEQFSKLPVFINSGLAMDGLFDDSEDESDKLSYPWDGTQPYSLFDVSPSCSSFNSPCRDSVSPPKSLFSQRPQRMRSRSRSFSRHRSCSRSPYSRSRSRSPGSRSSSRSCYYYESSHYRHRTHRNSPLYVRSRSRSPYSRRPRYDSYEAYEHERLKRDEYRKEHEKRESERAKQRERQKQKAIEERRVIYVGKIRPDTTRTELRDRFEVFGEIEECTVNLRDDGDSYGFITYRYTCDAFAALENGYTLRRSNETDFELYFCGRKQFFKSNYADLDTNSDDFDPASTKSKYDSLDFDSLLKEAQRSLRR
Description: (§1) The assays were carried out as follows.

[3] = system: HIB 1B brown fat cells; assay: Northern analysis of PGC-1 and UCP-1 mRNA in treated HIB 1B brown fat cells; assay type: cell-based, mouse; conditions: HIB 1B cells, 1 μM, 10 hr
Excerpt: Cold is sensed in the central nervous system and results in increased sympathetic output to peripheral tissues, including muscle and brown fat Himms-Hagen (1989) Can. J. Physiol Pharmcol. 67:394-401). Cold exposure can be mimicked, in terms of brown adipocyte precursor cell growth and the induction of UCP-1, by exposure of cultured brown fat cells to β-adrenergic agonists (Rehnmark et al. (1990) J. Biol. Chem. 25:16464-16471). To determine if PGC-1 gene expression is also sensitive to β-adrenergic agonists, HIB 1B brown fat cells were treated with isoproterenol (1 μM), a nonsubtype selective β agonist, for 10 hr. Total cellular RNA was isolated and analyzed using PGC-1 and UCP-1 cDNA probes.
Briefly, HIB 1B brown fat preadipocytes were differentiated as described herein. After 6 days, cells were approximately 80% differentiated.

[4] = molecular target: T3, PPARα (Homo sapiens, UniProt Q07869); assay: In vitro binding of GST-PGC-1 to in vitro-translated nuclear receptor; conditions: ligand 1 μM
T3 construct: made in house; host or cells: receptor: reticulocyte lysate in vitro translation (Promega TNT); GST-PGC-1: E. coli
T3 sequence (Q07869 1-468): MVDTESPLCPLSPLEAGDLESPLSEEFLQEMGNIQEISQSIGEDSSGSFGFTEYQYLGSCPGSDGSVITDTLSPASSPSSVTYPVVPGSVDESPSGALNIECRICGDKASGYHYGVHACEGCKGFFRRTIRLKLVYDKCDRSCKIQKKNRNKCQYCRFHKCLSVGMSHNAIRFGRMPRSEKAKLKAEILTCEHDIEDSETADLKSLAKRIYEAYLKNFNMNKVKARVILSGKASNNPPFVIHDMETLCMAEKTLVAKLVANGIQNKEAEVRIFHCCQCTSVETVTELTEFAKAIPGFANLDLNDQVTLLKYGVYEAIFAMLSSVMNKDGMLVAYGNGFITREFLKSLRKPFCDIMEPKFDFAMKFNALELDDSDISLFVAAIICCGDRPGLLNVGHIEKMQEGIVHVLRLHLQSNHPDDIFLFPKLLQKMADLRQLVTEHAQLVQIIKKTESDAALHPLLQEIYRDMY
T3 sequence (O70343 36-797 partner limits assumed): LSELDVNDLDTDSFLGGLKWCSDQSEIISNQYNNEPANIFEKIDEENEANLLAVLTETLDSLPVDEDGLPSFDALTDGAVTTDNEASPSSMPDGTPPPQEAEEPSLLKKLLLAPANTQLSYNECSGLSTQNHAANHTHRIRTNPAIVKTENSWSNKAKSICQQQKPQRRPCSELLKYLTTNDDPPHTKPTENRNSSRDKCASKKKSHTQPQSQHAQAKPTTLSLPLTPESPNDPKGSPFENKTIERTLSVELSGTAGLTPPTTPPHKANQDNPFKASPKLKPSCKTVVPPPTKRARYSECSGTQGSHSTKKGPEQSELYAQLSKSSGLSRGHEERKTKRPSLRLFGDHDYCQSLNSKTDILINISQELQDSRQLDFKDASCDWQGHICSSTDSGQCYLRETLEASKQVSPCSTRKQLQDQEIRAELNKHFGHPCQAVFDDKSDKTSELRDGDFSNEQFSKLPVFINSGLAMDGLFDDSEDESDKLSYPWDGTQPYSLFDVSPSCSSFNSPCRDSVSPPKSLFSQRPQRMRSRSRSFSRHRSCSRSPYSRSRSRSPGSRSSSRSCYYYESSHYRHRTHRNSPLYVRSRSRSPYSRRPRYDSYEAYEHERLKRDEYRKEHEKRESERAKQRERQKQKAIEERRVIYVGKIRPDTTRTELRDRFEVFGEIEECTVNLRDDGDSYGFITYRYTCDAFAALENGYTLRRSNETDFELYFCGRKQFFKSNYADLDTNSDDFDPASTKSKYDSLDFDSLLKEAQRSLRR
Description: as §1

[5] = system: PPARγ; assay: Binding of in vitro-translated PGC-1 C-terminal deletions to immobilized PPARγ fusion protein; set-up: species or system mouse; conditions: 35S-labelled PGC-1 deletions
Excerpt: The interaction between nuclear receptors and certain coactivators such as SRC-1 or CBP is ligand dependent (Kamai et al. (1996) Cell 84:403-414) and involves an LXXLL (SEQ ID NO:3) motif in the coactivators and the C-terminal AF-2 domain in the receptors (Heery et al. (1997) Nature 387:733-736; Torchia et al. (1997) Nature 387:677-684). To identify the domains responsible for PGC-1-PPARγ interactions, different C-terminal deletions of PGC-1 were generated as reticulocyte translation products and mixed with a […] fusion protein. Deletions of PGC-1 were made using specific restriction sites in the PGC-1 cDNA closed in pBluescript. The following restriction enzymes were used for these deletions: full-length Xhol (aa-1-797), Haell (aa 1-675) Ncol (aa 1-503), Xbal (aa 1-403), Kpnl (aa 1-338), and Stul (aa 1-292). These were then translated into vitro with an [^35S]methionine-label. One microliter of each in vitro translation reaction was resolved by SDS-PAGE and autoradiographed.
FIG. 4 summarizes the input of both the full-length PGC-1(1-797) and the 1-675 deletion which bind to the immobilized PPARγ.

Sequence of PPARγ (P37238 183-505 limits assumed): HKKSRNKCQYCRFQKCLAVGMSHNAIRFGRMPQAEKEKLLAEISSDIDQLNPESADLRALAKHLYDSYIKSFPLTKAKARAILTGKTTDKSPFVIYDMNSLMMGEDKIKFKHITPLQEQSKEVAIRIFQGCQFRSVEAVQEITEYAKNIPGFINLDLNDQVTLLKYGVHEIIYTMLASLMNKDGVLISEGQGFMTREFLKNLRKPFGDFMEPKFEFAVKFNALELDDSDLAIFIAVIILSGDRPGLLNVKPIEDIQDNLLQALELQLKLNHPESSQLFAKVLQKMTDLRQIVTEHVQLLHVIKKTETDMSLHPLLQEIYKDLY

CC1=C(/C=C/C(C)=C/C=C/C(C)=C/C(=O)O)C(C)(C)CCC1 [all-trans retinoic acid]
ligand dependency of PGC-1 interaction with the retinoic acid receptor [1]: strong ligand dependency

CCCCC[C@H](O)/C=C/[C@@H]1[C@H]2C/C(=C/CCCC(=O)O)C[C@H]2C[C@H]1O [carboprostacyclin]
ligand dependency of PGC-1 interaction with PPARδ [2]: slight ligand dependency

CC(C)NCC(O)c1ccc(O)c(O)c1 (stereo not shown) [isoproterenol]
PGC-1 mRNA [3]: sharp increase
UCP-1 mRNA [3]: sharp increase

CCCCC/C=C\C[C@@H](O)/C=C/C=C/C=C\[C@@H](O)CCCC(=O)O [leukotriene-4]
ligand dependency of PGC-1 interaction with PPARα [4]: slight ligand dependency

B1: PGC-1 1-292: C-terminal deletion of PGC-1, aa 1-292, still contains the LXXLL motif (protein)
chain: MAWDMCSQDSVWSDIECAALVGEDQPLCPDLPELDLSELDVNDLDTDSFLGGLKWCSDQSEIISNQYNNEPANIFEKIDEENEANLLAVLTETLDSLPVDEDGLPSFDALTDGAVTTDNEASPSSMPDGTPPPQEAEEPSLLKKLLLAPANTQLSYNECSGLSTQNHAANHTHRIRTNPAIVKTENSWSNKAKSICQQQKPQRRPCSELLKYLTTNDDPPHTKPTENRNSSRDKCASKKKSHTQPQSQHAQAKPTTLSLPLTPESPNDPKGSPFENKTIERTLSVELSGTAG
percentage of input material that bound to PPARγ [5]: completely loses the ability to interact with PPARγ

B2: PGC-1 1-503: C-terminal deletion of PGC-1, aa 1-503, lacks the SR and RNA-binding domains (protein)
chain: MAWDMCSQDSVWSDIECAALVGEDQPLCPDLPELDLSELDVNDLDTDSFLGGLKWCSDQSEIISNQYNNEPANIFEKIDEENEANLLAVLTETLDSLPVDEDGLPSFDALTDGAVTTDNEASPSSMPDGTPPPQEAEEPSLLKKLLLAPANTQLSYNECSGLSTQNHAANHTHRIRTNPAIVKTENSWSNKAKSICQQQKPQRRPCSELLKYLTTNDDPPHTKPTENRNSSRDKCASKKKSHTQPQSQHAQAKPTTLSLPLTPESPNDPKGSPFENKTIERTLSVELSGTAGLTPPTTPPHKANQDNPFKASPKLKPSCKTVVPPPTKRARYSECSGTQGSHSTKKGPEQSELYAQLSKSSGLSRGHEERKTKRPSLRLFGDHDYCQSLNSKTDILINISQELQDSRQLDFKDASCDWQGHICSSTDSGQCYLRETLEASKQVSPCSTRKQLQDQEIRAELNKHFGHPCQAVFDDKSDKTSELRDGDFSNEQFSKLPVFINSG
percentage of input material that bound to PPARγ [5]: 18%
